According to publication PMC8321398, “The discovery of a novel series of compounds with single-dose efficacy against juvenile and adult Schistosoma species” (PLoS Neglected Tropical Diseases, 2021):
pEC50: −log10 of the molar value. Where two headings read alike, the source gives them in different places.

Tests used:
[1] = Binding in the assay medium; type: in vitro ADME
Description: (§1) These early experiments also allowed us to use the PK Tool to predict the dose to use in the mouse efficacy models. As part of the prediction we need to recognise that the measured in vitro potency will be different from that in whole blood. […] They also display high protein binding in plasma, assay media and microsomal stability assays. […] Measurement of binding of LSHTM-3520 in the assay medium gave a free fraction, Fu of 0.0014. An experiment was run using LSHTM-3520 to determine whether the potency shift on varying the plasma protein level in the in vitro assay accords with prediction.

S. mansoni worms = test: In vitro potency assay with varied FBS level; type: cell-based; conditions: Schistosoma mansoni
Description: as §1

[2] = Observation of mice for adverse clinical signs / ill effects; type: in vivo; conditions: 200 mg/kg single oral dose, one mouse 400 mg/kg
Description: Prior to in vivo efficacy experiments, a single animal was given a dose of drug (using the same formulation) that was twice as large as that planned for use in the efficacy experiments and was observed periodically for adverse clinical signs for 24h by trained veterinarians. Adverse clinical signs checked include postural defect, vocalization, oculo-nasal discharge, hypersalivation, change in activity, abnormal gait, respiration and pulse, piloerection, loss of pupillary reflex, eyelid reflex, chromodacryorrhea, reaction to handling, tremor, convulsions, prostration, diarrhoea, cachexia, emaciation. […] In vivo efficacy was assessed in female CD1 mice using methods based on those previously described. Mice were infected subcutaneously with 150 cercariae. Test compounds were suspended in 7% Tween-80 / 3% Ethanol / double distilled water and drug dispersal was facilitated by vortexing and using a sonicating water bath (Formulation “Aqueous”). Alternatively, drugs were first dissolved in DMSO, then diluted with corn oil to give a 1:19 DMSO:corn oil solution/suspension of test compound (Formulation “Corn oil”). […] Worms were recovered by portal perfusion with citrate saline 8–14 days post treatment and counted. Differences between groups relative to the non-drug treated controls were assessed for statistical significance by Student’s unpaired t-test using GraphPad Prism Software. […]

[3] = In vivo efficacy, mouse model of adult (42-day old) S. mansoni infection; conditions: female, CD1, mouse, plasma, po, mouse, Adult infection, read-out: Plasma conc @24 h (efficacy experiment)
Description: (§2) Prior to in vivo efficacy experiments, a single animal was given a dose of drug (using the same formulation) that was twice as large as that planned for use in the efficacy experiments and was observed periodically for adverse clinical signs for 24h by trained veterinarians. Adverse clinical signs checked include postural defect, vocalization, oculo-nasal discharge, hypersalivation, change in activity, abnormal gait, respiration and pulse, piloerection, loss of pupillary reflex, eyelid reflex, chromodacryorrhea, reaction to handling, tremor, convulsions, prostration, diarrhoea, cachexia, emaciation. […] In vivo efficacy was assessed in female CD1 mice using methods based on those previously described. Mice were infected subcutaneously with 150 cercariae. Test compounds were suspended in 7% Tween-80 / 3% Ethanol / double distilled water and drug dispersal was facilitated by vortexing and using a sonicating water bath (Formulation “Aqueous”). Alternatively, drugs were first dissolved in DMSO, then diluted with corn oil to give a 1:19 DMSO:corn oil solution/suspension of test compound (Formulation “Corn oil”). Dosing was by oral gavage. Mice in the negative control groups were given the drug suspension vehicle only. Positive controls for treatment of adult, day 42 old, infections were treated with PZQ and those for juvenile, day 21 old, infections with artemether, which unlike PZQ is effective against the juvenile worm infections in mice. During and following treatment, mice were closely observed for any ill effects by staff experienced in animal handling. This involved individuals who were blinded to the treatment groups. Effects they were trained to look for included hunching, immobility, piloerection, subdued behaviour, diarrhoea and loss of body condition. None were seen. Worms were recovered by portal perfusion with citrate saline 8–14 days post treatment and counted. Differences between groups relative to the non-drug treated controls were assessed for statistical significance by Student’s unpaired t-test using GraphPad Prism Software. P values are presented as follows:- ns–P > 0.05 (not significant), * P ≤ 0.05, ** P ≤ 0.01, *** P ≤ 0.001, **** P ≤ 0.0001.
(§3) For pharmacokinetic analysis during the in vivo efficacy experiments individual animals were only sampled once. Samples were taken from one animal in each experimental group at each of 1, 4, 8 h and samples from two animals in each group were taken at 24 h.

S. mansoni adult worms = test: as above
Description: as §2, §3

S. japonicum adult = test: In vitro adult S. japonicum worm assay; type: cell-based; conditions: for pEC50: Schistosoma japonicum, S. japonicum, 120 h incubation, read-out: Sj adult EC50; for Potency ratio Sj/Sm: adult EC50 S. japonicum / S. mansoni
Description: (§4) The Puerto Rican strain of S. mansoni was maintained in Biomphalaria glabrata and CD1 mice. Oncomelania hupensis (hupensis) infected with S. japonicum (Chinese strain) and Bulinus truncatus (truncatus) infected with Egyptian strain S. haematobium were obtained from BEI Resources, NIAID, NIH. Infection of mice for worm recovery was as previously described except that, whereas cercariae of S. mansoni and S. haematobium were obtained by shedding from infected snails under lights, cercariae of S. japonicum were obtained by gently crushing the snails. Furthermore, adult S. haematobium were recovered after 12 weeks following mouse infection.
(§5) In vitro efficacy was carried out as previously described. In brief, worms were recovered from infected mice by portal perfusion 3 weeks (for juveniles) or 6 weeks (for adults) post-infection using warm perfusion medium (Dulbecco’s Modified Eagle’s Medium [DMEM], 2mM L-glutamine, 100 Units/ml penicillin, 100μg/ml streptomycin, 20mM Hepes, 10 Units/ml heparin [Sigma, UK]). Worms were washed free of red blood cells using the perfusion medium, and finally suspended in complete medium (cDMEM: DMEM, 2mM L-glutamine, 100 Units/ml penicillin, 100μg/ml streptomycin, 10% FCS). The juvenile assays were carried out in 96-well plates, each well containing 6–8 worms in 200 μL cDMEM. The adult worm assay was in 24-well plates, each well containing 3 worm pairs in 1mL cDMEM. Both the juvenile and adult worm cultures were kept at 37° C, in an atmosphere of 5% CO2. Drug effects were determined on day 5 following drug treatment by assessing the viability of individual worms as described in [14].

S. haematobium adult = test: In vitro adult S. haematobium worm assay; type: cell-based; conditions: for pEC50: Schistosoma haematobium, S. haematobium, 120 h incubation, read-out: Sh adult EC50; for Potency ratio Sh/Sm: adult EC50 S. haematobium / S. mansoni
Description: as §4, §5

[4] = rat, in vivo
Nav1.5 = target: T1, Nav1.5 (Homo sapiens, UniProt Q14524); test: Ion channel activity (Metrion), Nav1.5, QPatch; type: cell-based; conditions: dose-response up to 10 μM
T1 construct: Metrion biosciences
Description: (§6) Ion channel activity. Activity of compounds against ion channels was assessed by Metrion biosciences, Cambridge, CB21 6AD, UK in dose-response experiments (n = 2) up to 10 μM compound concentration with standards & equipment as listed for each ion channel (hERG–verapamil—QPatch, Nav1.5 –amitryptiline—QPatch, Kv1.5 –transDSC—QPatch, Cav1.2 –nimodipine—Flex).

hERG = target: T2, hERG (Homo sapiens, UniProt Q12809); test: Ion channel activity (Metrion), hERG, QPatch; type: cell-based; conditions: dose-response up to 10 μM
T2 construct: Metrion biosciences
Description: as §6

Kv1.5 = target: T3, Kv1.5 (Homo sapiens, UniProt P22460); test: Ion channel activity (Metrion), Kv1.5, QPatch; type: cell-based; conditions: dose-response up to 10 μM
T3 construct: Metrion biosciences
Description: as §6

Cav1.2 = target: T4, Cav1.2 (Homo sapiens, UniProt Q13936); test: Ion channel activity (Metrion), Cav1.2, Flex; type: cell-based; conditions: dose-response up to 10 μM
T4 construct: Metrion biosciences
Description: as §6

Stability in plasma = type: in vitro ADME; conditions: 37°C for 3 h
[5] = Stability in phosphate buffer and simulated gastric fluid; type: physicochemical; conditions: for degradation in simulated gastric fluid: pH 1.2, 37°C for 3 h; for degradation in phosphate buffer: pH 8.0, 37°C for 3 h

T1 sequence (Q14524 whole entry): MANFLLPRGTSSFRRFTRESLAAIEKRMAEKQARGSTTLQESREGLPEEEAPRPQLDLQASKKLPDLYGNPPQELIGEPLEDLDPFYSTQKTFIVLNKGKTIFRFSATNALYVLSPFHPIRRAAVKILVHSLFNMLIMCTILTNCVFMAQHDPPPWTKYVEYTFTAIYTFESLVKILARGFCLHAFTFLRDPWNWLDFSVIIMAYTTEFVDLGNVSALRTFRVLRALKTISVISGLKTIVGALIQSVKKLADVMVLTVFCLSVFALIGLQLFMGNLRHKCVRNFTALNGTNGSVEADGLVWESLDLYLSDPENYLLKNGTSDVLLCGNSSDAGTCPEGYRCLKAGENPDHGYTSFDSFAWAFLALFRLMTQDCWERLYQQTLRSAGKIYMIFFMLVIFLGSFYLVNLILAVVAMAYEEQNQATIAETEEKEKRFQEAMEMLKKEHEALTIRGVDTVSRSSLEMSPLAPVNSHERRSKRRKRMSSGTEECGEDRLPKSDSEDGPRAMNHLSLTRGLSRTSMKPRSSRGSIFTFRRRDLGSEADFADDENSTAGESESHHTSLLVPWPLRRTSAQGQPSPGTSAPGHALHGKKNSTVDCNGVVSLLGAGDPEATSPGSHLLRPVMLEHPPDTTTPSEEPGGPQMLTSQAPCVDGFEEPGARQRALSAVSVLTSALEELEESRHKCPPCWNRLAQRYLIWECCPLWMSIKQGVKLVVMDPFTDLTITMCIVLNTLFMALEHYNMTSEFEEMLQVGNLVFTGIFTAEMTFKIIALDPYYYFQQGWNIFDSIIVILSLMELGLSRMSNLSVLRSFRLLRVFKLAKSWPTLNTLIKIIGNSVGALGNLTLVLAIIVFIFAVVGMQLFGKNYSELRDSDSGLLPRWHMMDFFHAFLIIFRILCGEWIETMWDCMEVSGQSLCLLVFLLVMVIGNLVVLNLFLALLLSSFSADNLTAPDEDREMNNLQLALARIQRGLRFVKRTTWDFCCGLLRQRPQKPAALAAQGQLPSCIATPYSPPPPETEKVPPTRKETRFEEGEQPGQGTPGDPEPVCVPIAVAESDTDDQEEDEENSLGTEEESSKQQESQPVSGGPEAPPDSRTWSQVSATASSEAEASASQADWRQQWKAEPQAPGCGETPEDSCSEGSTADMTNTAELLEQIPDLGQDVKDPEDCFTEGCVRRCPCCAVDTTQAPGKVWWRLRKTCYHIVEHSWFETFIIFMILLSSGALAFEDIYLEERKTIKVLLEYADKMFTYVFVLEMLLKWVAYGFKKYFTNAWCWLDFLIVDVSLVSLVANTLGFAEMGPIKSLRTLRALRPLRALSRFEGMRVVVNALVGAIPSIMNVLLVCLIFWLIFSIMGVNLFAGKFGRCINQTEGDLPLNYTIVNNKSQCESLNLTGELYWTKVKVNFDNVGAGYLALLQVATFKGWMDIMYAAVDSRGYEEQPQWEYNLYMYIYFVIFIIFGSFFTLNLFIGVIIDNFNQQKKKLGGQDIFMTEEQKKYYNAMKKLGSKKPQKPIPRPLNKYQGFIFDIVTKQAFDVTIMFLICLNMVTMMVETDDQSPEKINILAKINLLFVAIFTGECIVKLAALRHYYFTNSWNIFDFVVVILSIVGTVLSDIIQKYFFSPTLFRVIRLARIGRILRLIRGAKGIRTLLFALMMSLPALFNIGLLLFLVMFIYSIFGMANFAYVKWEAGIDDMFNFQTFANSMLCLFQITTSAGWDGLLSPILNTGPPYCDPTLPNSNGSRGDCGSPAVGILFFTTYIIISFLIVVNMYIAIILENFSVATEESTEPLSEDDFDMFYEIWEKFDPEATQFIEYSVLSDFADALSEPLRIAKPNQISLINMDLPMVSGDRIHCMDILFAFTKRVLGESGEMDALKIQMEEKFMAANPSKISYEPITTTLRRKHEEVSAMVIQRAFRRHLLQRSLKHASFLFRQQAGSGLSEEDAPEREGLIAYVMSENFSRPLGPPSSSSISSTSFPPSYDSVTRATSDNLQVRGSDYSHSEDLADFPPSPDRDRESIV
T3 sequence (P22460 whole entry): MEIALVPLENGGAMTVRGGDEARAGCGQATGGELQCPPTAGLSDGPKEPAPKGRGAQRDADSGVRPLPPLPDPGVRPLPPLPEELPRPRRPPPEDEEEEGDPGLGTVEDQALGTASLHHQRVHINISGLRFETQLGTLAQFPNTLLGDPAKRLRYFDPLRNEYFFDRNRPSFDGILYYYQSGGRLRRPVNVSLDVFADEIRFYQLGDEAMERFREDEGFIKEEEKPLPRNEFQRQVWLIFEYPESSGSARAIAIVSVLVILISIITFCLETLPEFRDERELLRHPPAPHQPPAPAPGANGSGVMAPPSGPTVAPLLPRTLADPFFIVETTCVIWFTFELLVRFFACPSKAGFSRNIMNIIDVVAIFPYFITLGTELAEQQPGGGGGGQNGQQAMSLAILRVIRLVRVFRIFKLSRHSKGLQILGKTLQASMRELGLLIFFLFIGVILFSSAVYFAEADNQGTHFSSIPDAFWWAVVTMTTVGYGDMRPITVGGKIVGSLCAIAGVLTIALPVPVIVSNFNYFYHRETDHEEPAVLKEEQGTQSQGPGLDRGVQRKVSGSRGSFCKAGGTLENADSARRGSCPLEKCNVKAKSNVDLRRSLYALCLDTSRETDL
T2 sequence (Q12809 whole entry): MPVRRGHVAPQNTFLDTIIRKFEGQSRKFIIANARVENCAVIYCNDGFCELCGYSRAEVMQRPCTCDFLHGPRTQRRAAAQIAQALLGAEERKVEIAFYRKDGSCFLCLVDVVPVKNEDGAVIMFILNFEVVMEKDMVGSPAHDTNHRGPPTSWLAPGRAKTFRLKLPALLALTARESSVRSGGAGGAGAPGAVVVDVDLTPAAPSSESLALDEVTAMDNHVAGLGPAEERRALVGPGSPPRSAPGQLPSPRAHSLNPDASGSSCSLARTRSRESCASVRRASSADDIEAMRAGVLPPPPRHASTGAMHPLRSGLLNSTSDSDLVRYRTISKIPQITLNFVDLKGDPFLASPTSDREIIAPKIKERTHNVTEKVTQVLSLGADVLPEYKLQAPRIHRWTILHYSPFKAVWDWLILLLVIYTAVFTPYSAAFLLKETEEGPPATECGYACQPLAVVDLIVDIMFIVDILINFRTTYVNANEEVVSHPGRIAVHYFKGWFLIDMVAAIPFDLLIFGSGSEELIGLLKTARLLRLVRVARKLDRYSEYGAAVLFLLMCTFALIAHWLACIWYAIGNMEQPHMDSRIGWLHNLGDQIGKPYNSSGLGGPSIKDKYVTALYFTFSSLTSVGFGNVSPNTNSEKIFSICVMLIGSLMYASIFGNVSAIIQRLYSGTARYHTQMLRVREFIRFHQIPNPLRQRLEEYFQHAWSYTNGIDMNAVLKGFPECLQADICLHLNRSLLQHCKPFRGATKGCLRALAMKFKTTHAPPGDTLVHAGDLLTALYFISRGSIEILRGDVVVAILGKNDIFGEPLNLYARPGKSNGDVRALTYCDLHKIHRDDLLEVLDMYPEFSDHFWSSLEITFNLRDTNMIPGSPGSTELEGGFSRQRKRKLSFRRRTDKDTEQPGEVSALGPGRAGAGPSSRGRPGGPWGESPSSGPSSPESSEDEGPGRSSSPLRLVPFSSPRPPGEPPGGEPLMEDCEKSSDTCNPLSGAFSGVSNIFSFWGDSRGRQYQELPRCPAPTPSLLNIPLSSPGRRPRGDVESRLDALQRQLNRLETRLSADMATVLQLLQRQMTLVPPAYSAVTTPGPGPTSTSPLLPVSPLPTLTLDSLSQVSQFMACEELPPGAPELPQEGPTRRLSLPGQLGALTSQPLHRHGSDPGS

SMILES | pEC50 (S. japonicum adult) | Potency ratio Sj/Sm (S. japonicum adult) | pEC50 (S. haematobium adult) | Potency ratio Sh/Sm (S. haematobium adult) | inhibition of Nav1.5 (Nav1.5) | inhibition of hERG (hERG) | inhibition of Kv1.5 (Kv1.5) | inhibition of Cav1.2 (Cav1.2) | degradation in plasma (Stability in plasma) | degradation in simulated gastric fluid [5] | degradation in phosphate buffer [5] | also measured
CC(C)c1nc2cnc(-c3ccc(F)c(C(F)(F)F)c3)cn2c1-c1c(F)cc(O)cc1F [LSHTM-3520] | 7.13 | 1.6 | 7.75 | 0.4 | – | – | – | – | – | – | – | fraction unbound ([1]; bovine, assay medium of the in vitro potency assay, read-out: free fraction, Fu): 0.0014; recovery ([1]; bovine, in vitro potency assay medium with Foetal Bovine Serum, in vitro assay medium): 69.3%; Assay medium %binding ([1]; in vitro assay medium): 99.86%; pEC50 (S. mansoni worms; 3% FBS): 8.10; pEC50 (S. mansoni worms; 10% FBS): 7.61; pEC50 (S. mansoni worms; 30% FBS): 7.12; issues observed with the animals exposed [2]: no issues observed; concentration at 24 h ([3]; 200 mg/kg, oral 200 mg/kg, formulation Aq): 2000 ng/mL; reducing the S. mansoni worm count (S. mansoni adult worms; mice infected for 42 days (adult worms), 200 mg/kg single oral dose): highly effective; Worms remaining (S. mansoni adult worms; mouse, Adult infection, oral 200 mg/kg, formulation Aq): 1%; Plasma conc @24 h (efficacy experiment) (S. mansoni adult worms; mouse, Adult infection, oral 200 mg/kg, formulation Aq, 200 mg/kg): 1,907 ng/mL
Fc1c(-c2c(C(F)(F)F)nc3cnc(-c4cccc(C(F)(F)C(F)(F)F)c4)cn23)ccc2[nH]ncc12 [LSHTM-3608] | 7.02 | 6.2 | 8.03 | 0.6 | – | – | – | – | – | – | – | –
Fc1ccc(-c2cn3c(-c4ccc5[nH]ncc5c4F)c(C(F)(F)F)nc3cn2)cc1C(F)(F)F [LSHTM-3642, 3-(4-fluoro-1H-indazol-5-yl)-6-(4-fluoro-3-(trifluoromethyl)phenyl)-2-(trifluoromethyl)imidazo[1,2-a]pyrazine] | 6.41 | – | 7.64 | – | – | – | – | – | – | – | – | Clobs ([4]; iv, 1 mg/kg): 3.33 mL/min/kg; Plasma conc @ 24 h after oral dose ([4]; po, 10 mg/kg, 24 h): 357 ng/mL; concentration at 24 h ([3]; 12.5 mg/kg, oral 12.5 mg/kg, formulation Aq): 939 ng/mL; in vivo EC50 against adult worms (S. mansoni adult worms; mouse model, single oral dose (Fig 9A)): < 6.25 mg/kg; Worms remaining (S. mansoni adult worms; mouse, Adult infection, oral 12.5 mg/kg, formulation Aq): 1%
Fc1ccc(-c2cn3c(-c4ccc5[nH]ncc5c4F)c(C(F)(F)F)nc3cn2)cc1C(F)(F)C(F)(F)F [LSHTM-3645] | 6.89 | 13.3 | 8.19 | 0.7 | Neither LSHTM-3645 nor LSHTM-3686 showed any inhibition | Neither LSHTM-3645 nor LSHTM-3686 showed any inhibition | Neither LSHTM-3645 nor LSHTM-3686 showed any inhibition | Neither LSHTM-3645 nor LSHTM-3686 showed any inhibition | No degradation | No degradation | No degradation | concentration at 24 h ([3]; 6.25 mg/kg, oral 6.25 mg/kg, formulation corn oil): 1010 ng/mL; Worms remaining (S. mansoni adult worms; mouse, Adult infection, oral 6.25 mg/kg, formulation corn oil): 1%; efficacy against adult worm infections (S. mansoni adult worms; mouse, single oral dose (Fig 9B)): highly effective
CC(C)c1cc(-c2cn3c(-c4ccc5[nH]ncc5c4F)c(C4CC4)nc3cn2)ccc1F [LSHTM-3686] | 7.33 | 8.7 | 8.43 | 0.7 | Neither LSHTM-3645 nor LSHTM-3686 showed any inhibition | Neither LSHTM-3645 nor LSHTM-3686 showed any inhibition | Neither LSHTM-3645 nor LSHTM-3686 showed any inhibition | Neither LSHTM-3645 nor LSHTM-3686 showed any inhibition | No degradation | No degradation | No degradation | concentration at 24 h ([3]; oral 6.25x2 mg/kg (12 h apart), formulation corn oil): 241 ng/mL; Worms remaining (S. mansoni adult worms; mouse, Adult infection, oral 6.25x2 mg/kg (12 h apart), formulation corn oil): 2.4%
